Consider seven compounds from DBAASP.

Each structure is given as a SMILES string. Values after ≈ are worked out from the molar mass of the structure shown. Values joined by “and” are separate entries in the source; they are usually repeats but may differ in a detail not shown here. Equal values may be shown once.

Among the test systems are Serratia marcescens; Klebsiella pneumoniae; Candida albicans SC5314; Escherichia coli O157:H7; Yersinia pestis KIM pYV; Staphylococcus aureus; Candida krusei IFN 5462.
Test in all cases: ≥ marks a high value that may be exact or a test limit, other limits are often not marked, values filed in µg/mL are converted to µM
In assay [1] the test system is Pseudomonas aeruginosa ATCC 27853.
Assay [2] concerns Yersinia enterocolitica O:9 96-C.
The subject of assay [3] is Candida albicans ATCC 10261.
The subject of assay [4] is Escherichia coli CIB 84492.
Assay [5] deals with Escherichia coli ATCC 25922.
Assay [6] has as its system Candida albicans CIB 45437.
Assay [7] relates to Staphylococcus aureus ATCC 25923.
Assay [8] has as its system Candida albicans ATCC 90028.
The test system of assay [9] is Staphylococcus aureus NCTC 8325.
For assay [10], the system named is Staphylococcus aureus CIB 85462.
The subject of assay [11] is Staphylococcus aureus 1056.
Assay [12] relates to Bacillus thuringiensis serovar israelensis.
The subject of assay [13] is Escherichia coli D31 CGSC 5165.
Assay [14] concerns Candida glabrata ATCC 2001.
Assay [15] has as its system Escherichia coli DH5alpha.
Assay [16] has as its system Staphylococcus aureus SA113.
Assay [17] has as its system Acinetobacter baumannii ATCC 19606.
In assay [18] the test system is Staphylococcus aureus ΔmprFpRBsyn.
Assay [19] deals with Bordetella bronchiseptica CUN 11844-99.
The subject of assay [20] is Brucella abortus 9.49 (per-).
Assay [21] relates to Pseudomonas aeruginosa CUN 4158-02.
Assay [22] relates to Escherichia coli ATCC 23716.
The subject of assay [23] is Staphylococcus aureus ΔmprF.
Assay [24] deals with Staphylococcus aureus ATCC 43300.
In assay [25] the test system is Ureaplasma urealyticum strain 2.
The test system of assay [26] is Ureaplasma urealyticum strain 1.
Assay [27] relates to Candida glabrata IFM 46861.
The test system of assay [28] is Candida tropicalis IFM 46862.

As to `CC[C@H](C)[C@H](NC(=O)[C@H](C)NC(=O)[C@@H](NC(=O)[C@H](Cc1cnc[nH]1)NC(=O)[C@@H]1CCCN1C(=O)[C@H](CC(C)C)NC(=O)[C@@H](NC(=O)[C@H](C)NC(=O)[C@H](CCCN=C(N)N)NC(=O)CNC(=O)[C@@H](NC(=O)[C@H](CCCN=C(N)N)NC(=O)[C@H](C)NC(=O)[C@@H](NC(=O)[C@@H](NC(=O)[C@H](CCCN=C(N)N)NC(=O)[C@@H](NC(=O)[C@H](C)NC(=O)[C@H](CO)NC(=O)[C@H](CCCN=C(N)N)NC(=O)[C@H](CC(C)C)NC(=O)[C@H](C)N)C(C)C)[C@@H](C)O)C(C)C)C(C)C)C(C)C)C(C)C)C(N)=O` [ALRSAVRTVARVGRAVLPHVAI], the MIC (usually the lowest concentration found to suppress growth) in assay [1] is 12.5 µM and 6.3 µM; against Serratia marcescens, 25 µM (≈ 57.8 µg/mL); in assay [2] it was 3.1 µM and 1.6 µM; in assay [3] it was 6.3 µM and 3.1 µM; with Klebsiella pneumoniae, > 25 µM and 12.5 µM; with Candida albicans SC5314, 6.3 µM and 3.1 µM.
Consider `CC(C)C[C@H](NC(=O)CN)C(=O)N[C@@H](CC(C)C)C(=O)N[C@@H](CC(=O)O)C(=O)N[C@H](C(=O)N[C@@H](Cc1ccccc1)C(=O)N[C@@H](CCCCN)C(=O)N[C@@H](CC(N)=O)C(=O)N[C@@H](CC(C)C)C(=O)N[C@@H](C)C(=O)N[C@@H](CC(C)C)C(=O)N[C@@H](CC(N)=O)C(=O)N[C@@H](C)C(=O)N[C@@H](C)C(=O)N[C@@H](CCCCN)C(=O)N[C@@H](CO)C(=O)N[C@@H](C)C(=O)NCC(=O)N[C@H](C(=O)N[C@@H](CO)C(=O)N[C@H](C(=O)N[C@@H](CC(C)C)C(=O)N[C@@H](CC(N)=O)C(=O)N[C@@H](CO)C(=O)N[C@@H](CC(C)C)C(=O)N[C@@H](CO)C(=O)N[C@H]1CSSC[C@@H](C(=O)O)NC(=O)[C@H]([C@@H](C)O)NC(=O)[C@H](CCCCN)NC(=O)[C@H](CO)NC(=O)[C@H](CC(C)C)NC(=O)[C@H](CCCCN)NC1=O)C(C)C)C(C)C)[C@@H](C)O` [GLLDTFKNLALNAAKSAGVSVLNSLSCKLSKTC], for which the MIC is no less than 38 µM in [4]; 12.5 µM (≈ 42.1 µg/mL) in [5]; 19 µM (≈ 64 µg/mL) in [6]; 19 µM (≈ 64 µg/mL) in assay [7]; no less than 100 µM in [8]; no less than 50 µM in assay [9]. The same compound had an MIC in assay [10] of 19 µM (≈ 64 µg/mL).
On to `CC[C@H](C)[C@H](N)C(=O)N1CCC[C@H]1C(=O)N[C@@H](CCCN=C(N)N)C(=O)N1CCC[C@H]1C(=O)N[C@@H](CC(C)C)C(=O)N[C@@H](CC(=O)O)C(=O)N1CCC[C@H]1C(=O)N[C@H]1CSSC[C@@H]2NC(=O)[C@H](CO)NC(=O)[C@H](CCCCN)NC(=O)CNC(=O)[C@H](CC(N)=O)NC(=O)[C@H](CCCN=C(N)N)NC(=O)[C@@H]3CSSC[C@H](NC(=O)[C@H](CCCN=C(N)N)NC(=O)CNC(=O)[C@H](CC(N)=O)NC(=O)[C@H](CCC(N)=O)NC(=O)[C@H](C)NC(=O)[C@H]([C@@H](C)CC)NC1=O)C(=O)N[C@@H](Cc1ccccc1)C(=O)N[C@@H]([C@@H](C)O)C(=O)NCC(=O)N[C@@H]([C@@H](C)CC)C(=O)N[C@@H](CSSC[C@@H](C(=O)N[C@@H](CCCN=C(N)N)C(=O)N[C@@H](CCCN=C(N)N)C(=O)N[C@@H](CCCN=C(N)N)C(=O)O)NC2=O)C(=O)N[C@@H](CCCN=C(N)N)C(=O)N[C@@H](Cc1ccc(O)cc1)C(=O)N1CCC[C@H]1C(=O)N[C@@H](Cc1ccc(O)cc1)C(=O)N[C@@H](Cc1ccccc1)C(=O)N[C@@H](Cc1c[nH]c2ccccc12)C(=O)N[C@@H]([C@@H](C)CC)C(=O)NCC(=O)N[C@@H]([C@@H](C)O)C(=O)N3` [IPRPLDPCIAQNGRCFTGICRYPYFWIGTCRNGKSCCRRR], for which the figures for the MIC (against Escherichia coli O157:H7; in assay [11]) were 0.515 µM (≈ 2.41 µg/mL) and 0.594 µM (≈ 2.78 µg/mL), respectively.
On to `CC[C@H](C)[C@H](NC(=O)[C@H](Cc1ccccc1)NC(=O)[C@H](CCCCN)NC(=O)[C@H](C)NC(=O)[C@@H](NC(=O)[C@H](CO)NC(=O)[C@H](CCCCN)NC(=O)[C@H](CCSC)NC(=O)[C@@H](NC(=O)[C@H](CCCCN)NC(=O)[C@H](Cc1ccccc1)NC(=O)[C@H](Cc1c[nH]c2ccccc12)NC(=O)[C@H](CCCCN)NC(=O)[C@@H](NC(=O)[C@@H](N)CCCCN)[C@@H](C)CC)[C@@H](C)O)[C@@H](C)CC)C(=O)N[C@@H](C)C(=O)N[C@@H](CCCCN)C(=O)N[C@@H](CCC(=O)O)C(=O)N[C@@H](CCC(N)=O)C(=O)N[C@@H](CCSC)C(=O)N[C@@H](CCCCN)C(=O)N[C@@H](CCCCN)C(=O)N[C@@H](Cc1cnc[nH]1)C(=O)N[C@@H](CC(C)C)C(=O)NCC(=O)NCC(=O)N[C@@H](CCC(=O)O)C(=O)O` [KIKWFKTMKSIAKFIAKEQMKKHLGGE], for which the minimal inhibitory concentration (MIC) in assay [12] is 24.5 µM (≈ 78.6 µg/mL); in assay [13] it was 10 µM (≈ 32.1 µg/mL); in assay [14], no less than 122 µM; in assay [15], no less than 40 µM.
On to `CC[C@H](C)[C@H](NC(=O)[C@H](CCCN=C(N)N)NC(=O)[C@H](CCCCN)NC(=O)[C@H](CO)NC(=O)[C@@H](NC(=O)[C@@H](N)CCCCN)[C@@H](C)CC)C(=O)N[C@@H](CC(C)C)C(=O)N[C@H](C(=O)NCC(=O)N[C@@H](CCCCN)C(=O)N[C@@H](CCCCN)C(N)=O)[C@@H](C)O` [KISKRILTGKK], for which the minimum inhibitory concentration (MIC) in [16] is no less than 201 µM; in assay [17] it was greater than 201 µM; in [18] it was no less than 201 µM; in assay [5], greater than 201 µM; in [19], no less than 201 µM; with Yersinia pestis KIM pYV, no less than 201 µM. The minimal inhibitory concentration (MIC) in assay [20] is no less than 201 µM; in assay [21], no less than 201 µM; in assay [22], no less than 201 µM; in assay [23], no less than 201 µM; in the assay on Staphylococcus aureus it was greater than 201 µM; in assay [24], greater than 201 µM.
Regarding `CC[C@H](C)[C@H](NC(=O)[C@H](CCSC)NC(=O)[C@H](CC(=O)O)NC(=O)[C@@H](NC(=O)[C@H](CCSC)NC(=O)[C@H](Cc1ccccc1)NC(=O)[C@H](CC(N)=O)NC(=O)[C@H](Cc1ccccc1)NC(=O)CNC(=O)[C@H](CCCCN)NC(=O)[C@H](CC(N)=O)NC(=O)[C@H](CO)NC(=O)[C@@H](N)CCCN=C(N)N)C(C)C)C(=O)N[C@@H](CCC(N)=O)C(=O)N[C@@H](C)C(=O)N[C@@H](CC(C)C)C(=O)N[C@@H](CO)C(=O)N[C@@H](CCCCN)C(N)=O` [RSNKGFNFMVDMIQALSK], the MIC in assay [25] and in assay [26] was no less than 46 µM in each case.
As to `CC(C)[C@H](N)C(=O)N[C@@H](CO)C(=O)N[C@@H](CCCN=C(N)N)C(=O)N[C@@H](CCCN=C(N)N)C(=O)N[C@@H](CCCN=C(N)N)C(=O)N[C@@H](CCCN=C(N)N)C(=O)N[C@@H](CCCN=C(N)N)C(=O)N[C@@H](CCCN=C(N)N)C(=O)NCC(=O)NCC(=O)N[C@@H](CCCN=C(N)N)C(=O)N[C@@H](CCCN=C(N)N)C(=O)N[C@@H](CCCN=C(N)N)C(=O)N[C@@H](CCCN=C(N)N)C(=O)O` [VSRRRRRRGGRRRR], the MIC is 2.5 µM (≈ 4.7 µg/mL) in assay [27]; 2.5 µM (≈ 4.7 µg/mL) in the assay on Candida krusei IFN 5462; 2.5 µM (≈ 4.7 µg/mL) in assay [28]; 1.6 µM and 2.5 µM in the assay on Candida albicans SC5314.
